Patent US8962263B2, “Methods and compositions for detecting the activation state of multiple proteins in single cells” (The Board of Trustees of the Leland Stanford Junior …, priority 2001, dated 2015)

Columns and labels:
Jurkat T cells = experiment: anti-Fas induced apoptosis in ICAM-2 crosslinked Jurkat cells, annexin-V binding assay; format: cell-based, human; details: inhibitor 10 μM 1 hour, anti-Fas 50 ng/ml 8 hours
Protocol: A) ICAM-2, crosslinking induced AKT activity in Jurkat T cells and subsequent phosphorylation of GSK3, FKHR, and AFX as a function of time. Serum starved Jurkat T cells were incubated with either isotype control or anti-human ICAM-2, (10, μg/ml) for the indicated times. AKT kinase activity was determined as described. Immunoblot analysis verified AKT dual phosphorylation, FKHR and GSK3 phosphorylation, and BAD phosphorylation as a function of ICAM-2, crosslinking. B) ICAM-2 crosslinking induces AKT activity in BaF3, pre-B cells. […] ICAM-2, was crosslinked on 106, Jurkat T cells using an ICAM-2, mAb (10, μg/ml) 30, minutes prior to treatment with staurosporine (+) or DMSO vehicle (−). Apoptosis was determined by flow cytometry using annexin-V binding assay. […] Cells were assessed for apoptosis by annexin-V binding assay. […]
Apoptosis was determined either by counting pyknotic nuclei, annexin-V binding by flow cytometry, or TUNEL BrdU staining by flow cytometry as indicated. Apoptosis was induced either by staurosporine (1 μm), treatment with anti-mouse Fas (5 μq/ml Santa Cruz Biotechnology (SCB), anti-human Fas ([…]) as indicated in appropriate experiment, IL-3 withdrawal-(24 hrs) or as indicated. For pyknolic nuclei count, NIH3T3 cells were grown on glass coverslips and assayed for apoptosis. Suspension cells were analyzed by nuclear staining with 25 μM acridine orange/25 μm ethidium bromide or 5 μg/ml Hoechst 33342 (Molecular Probes, Eugene, Oreg.). Apoptosis was identified by the presence of characteristic pyknotic nuclei as described (Jacobson and Raff, 1995). At least 5 individual fields were photographed and counted using a Zeiss axioscope fluorescence microscope. […] The cells were trypsinized and viable cells counted following trypan blue staining. Untreated cells were counted at the time of treatment. % survival represents (number of viable cells post-treatment)/(number of viable cells pretreatment). […] Flow cytometry analysis was performed on a BD FACSCalibur machine with CELLQuest and analyzed using FlowJo software (Tree Star).

p44/42 MAPK = experiment: intracellular phospho-p44/42 MAPK by flow cytometry in ICAM-2 treated Jurkat cells; format: cell-based, human; details: chemical agents 10 μM, EDTA 1 mM; mAbs titrated prior to ICAM-2
Text: A) Mean fluorescent intensity values (MFI) of ICAM-2-FITC (adhesion) and mAb24-Alexa633, (LFA-1, activation) in treated Jurkat cells (as above). Control unstimulated and/or compound pretreated values were subtracted. B) Top panel: Intracellular phospho-p44/42, MAPK detection as a function of ICAM-2, dose in Jurkat cells by flow cytometry (see Material and Methods). Mean fluorescent intensity values (MFI) were plotted±standard deviation (SD). Bottom panel: ICAM-2, treated Jurkat cells were stained for intracellular phospho-p44/42, MAPK as described above. mAbs to β2, and αL, integrins (10, μg/ml, 10, minutes) were titrated prior to ICAM-2, treatment as indicated and plotted for MFI±SD. C) ICAM-2, induced p44/42, MAPK activity is blocked by β2, and αL, integrin antibodies as determined by a p44/42 MAPK kinase assay. Conditions for induction and inhibition are as described above. Recombinant active p44/42, MAPK served as an internal positive control (denoted by “+”). D) Inhibition and activation profile for intracellular phospho-p44/42, by flow cytometry in the presences of chemical agents (10, μM), EDTA (1, mM), or PMA, ionomycin and ICAM-2, stimulus (as indicated above). MFI values±SD are plotted.
(§1) Intracellular and extracellular staining was performed as described (Perez and Nolan, 2002). Intracellular probes for active kinases were made by conjugating phospho-specific antibodies to the ALEXA FLUOR® dye series as described and used in phospho-protein optimized conditions (Perez and Nolan, 2002). Kinetic analyses was performed by direct application of fixation buffer in time synchronized 96-wells maintained at 37° C. Intracellular actin and microtubule staining was performed using phalloidin-Alexa633 and taxol-Alexa546 dyes (Molecular Probes). Adhesion and clustering assays were performed using ICAM-2-FITC as described in text. LFA-1 activation was assessed by either mAb24-Alexa633 or mAb24-Alexa546 conjugate, surface stained at 37° C. Flow cytometry data are representative of 3 independent experiments of 10^6 cells/sample. 10-50,000 events were collected and manually calibrated on a FACSCalibur™ machine. Data plotted in bar graph format is expressed as geometric mean fluorescence intensity (MFI) and normalized for isotype controls. Log ratios are defined as the MFI of stimulus to the MFI of unstimulated cells. Data was analyzed using Flowjo™ software (Treestar).

ezrin = experiment: phosphotyrosine-protein based elisa for ezrin tyrosine phosphorylation upon ICAM-2 ligation; format: cell-based, human; details: Jurkat cells
Protocol: A) Expression levels of ICAM-2, vary across cell lines of different origins. Quantitative flow cytometry analysis was performed to assess the number of ICAM-2 surface molecules across transformed and untransformed fibroblasts, lymphocytes of T-cell and different B-cell differentiation states and myeloid lineages (see Material and Methods for elaboration). The number of surface molecules/cell is expressed as the mean (bar)+/−SD of triplicate experiments. B) Crosslinking of endogenous ICAM-2, induces ezrin tyrosine phosphorylation and enhanced ICAM-2, interaction. Jurkat cells were crosslinked for ICAM-2 using monoclonal antibody for the indicated times and subjected to immunoprecipitation/immunoblotting as indicated. C) Inhibition of ezrin phosphotyrosine by chemical inhibitors of src and Rho-dependent kinases. D) Ezrin phosphorylation and enhanced interaction with the p85, subunit of PI3K as a function of ICAM-2. Determined as described above. E) PDK-1, activity as a function of ICAM-2, ligation, as described above). F) PI3K and AKT localize to the membrane as a function of ICAM-2, ligation. Membrane/cytosolic fractionation was performed on ICAM-2, ligated Jurkat cells as a function of time and subjected to immunoblotting for PI3K and AKT.
In order to identify upstream kineses capable of tyrosine phosphorylating ezrin as a function of ICAM-2 ligation, we developed a phosphotyrosine-protein based elisa to screen for the inhibition of ezrin tyrosine phosphorylation in vivo by various known inhibitors of protein kineses (Perez and Nolan, manuscript in preparation). […] Given the design of the screen to detect tyrosine residue phosphorylation, we speculate that activation of Rho-dependent processes may be a prerequisite for ezrin to be tyrosine phosphorylated by src (elaborated below).

cell surface LFA-1 = molecular target: T1, cell surface LFA-1 (Homo sapiens, UniProt P20701); experiment: ICAM-2-FITC surface binding on Jurkat cells by flow cytometry (single cell binding measurements); details: cytochalisin D treated Jurkat cells
T1 construct: within the physiological context of cell surface LFA-1; endogenous in cells; host or cells: Jurkat T cells
Protocol: A) Purified human ICAM-2, from retrovirally transduced NIH3T3, (see materials and methods) was tested for purity, size, and aggregate formation by native gel electrophoresis and gel filtration. Analysis of purified ICAM-2, from two different preps and ICAM2-FC from NSO cells. Molecular weight was calculated using relative distance migration from a molecular weight standard. Concentration was determined using serial dilutions of BSA as a standard. […] B) ICAM-2, ligand binding to cell surface as a function of time. 5×10^6, unstimulated and PMA stimulated (1, μg/ml, 30, min) Jurkat T cells were incubated with ICAM-2-FITC or LFA-1-FITC antibody (1, μg/ml) and subjected to time dependent flow cytometry. Mean fluorescence intensity was plotted per time of a gated homogenous cell population. Flow rate was maintained at 200-300, cells/second, with fluorescence intensity values acquired at 10, millisecond intervals for 1200, seconds. C) Flow cytometric analysis of ICAM-2-FITC and a-LFA-1-FITC surface binding on cytochalisin D treated (10, μM, 30, min) Jurkat cells at 37° C. and 4° C. D) Curve fit analysis of ICAM-2-FITC binding per 10^4, cells. Jurkat cells were incubated with ICAM-2-FITC at 37° C. for 30, min at indicated concentrations in 50, μL volume. Cells were washed 1×, and analyzed for mean fluorescent intensity (MFI) of 10^4, cells. Percent ICAM-2-FITC bound was calculated from the following equation: 100×[(MFI[×]−MFIunstained)/(MFI[saturated]−MFIunstained)] where [×]=ICAM-2-FITC concentration and [saturated]=concentration that saturated binding. Values were fit to the equation Y=m1*M0/(m2+M0) (see materials and methods).
Full length ICAM2 cDNA was obtained from Jurkat cells and cloned into retroviral vector PBM-Z-IN at the BamHI/Sal1 site as described (Perez et al., 2002). Human ICAM-2 was overexpressed in NIH3T3 cells by retroviral infection and harvested by immunoaffinity chromatography. ICAM-2 was affinity purified using a two step lysing procedure and subsequent purification on an anti-ICAM-2 solid support. […] Batch lysate of harvested supernatant was performed (4° C., for 2 hrs), and washed 4 times in buffer C (0.1% Tween-20, PBS pH 7.4). ICAM-2 protein was eluted by 4.5 M NaCl (in Tris pH 6.8), dialyzed overnight (in PBS pH 7.4, 0.001% azide, 0.01% glycerol, 4° C.), concentrated using size exclusion spin chromatography and stabilized using 0.01% glycerol. Anti-ICAM-2 solid support was re-equilibrated in buffer C, stored in 0.001% thimerosol and re-used up to 3 times. Purity was >98% as assessed by coomasie gel. […] Gel imaging was performed on a VersaDoc machine (Biorad) and analyzed using Quantity One quantitation software (Biorad). […]

LFA-1 = LFA-1 activation by mAb24-Alexa633 staining, flow cytometry; format: cell-based, human; details: Jurkat cells; agents 10 μM 30 min, PMA 1 μg/ml, prior to ICAM-2 10 μg/ml 30 min
Protocol: A) Confocal microscopy of actin and microtubule architecture upon ICAM-2, stimulus (10, μg/ml, 30, min) in Jurkat cells. Actin was stained by phalloidin-alexa633, and tubulin by taxol-alexa546. Inserts display enlarged cell image of representative treatment B) Flow cytometric staining for actin and microtubules as described above. C) Left: Fluorescence topography analysis of ICAM-2-FITC (1 μg/ml, time as indicated) surface distribution. Intensity color gradient depicts high and low fluorescent intensity values. Right: Confocal microscopy of ICAM-2-FITC surface binding (10 μg/ml, 30, min) and anti-β2-alexa568, (clone CTB104). D) Staining for ICAM-2-FITC surface binding (fluorescence intensity) and surface distribution (fluorescence pulse) in cytochalisin D treated Jurkat cells at 37° C. and 4° C. by flow cytometry. E) Values for ICAM-2-FITC fluorescence intensity per time-of-flight per cell as described in text. F) Flow cytometric staining for LFA-1 activation by mAb24-alexa633. Stimuli as indicated (10, μM, 30, min), PMA (1, μg/ml) prior to ICAM-2, stimulation (10, μg/ml, 30, min). Staining was performed at 37° C. G) Mean fluorescence intensity (MFI) values of mAb24-633, and ICAM-2, cluster values, computed as described above, as a function of time.
as §1

T1 sequence (P20701 26-1170): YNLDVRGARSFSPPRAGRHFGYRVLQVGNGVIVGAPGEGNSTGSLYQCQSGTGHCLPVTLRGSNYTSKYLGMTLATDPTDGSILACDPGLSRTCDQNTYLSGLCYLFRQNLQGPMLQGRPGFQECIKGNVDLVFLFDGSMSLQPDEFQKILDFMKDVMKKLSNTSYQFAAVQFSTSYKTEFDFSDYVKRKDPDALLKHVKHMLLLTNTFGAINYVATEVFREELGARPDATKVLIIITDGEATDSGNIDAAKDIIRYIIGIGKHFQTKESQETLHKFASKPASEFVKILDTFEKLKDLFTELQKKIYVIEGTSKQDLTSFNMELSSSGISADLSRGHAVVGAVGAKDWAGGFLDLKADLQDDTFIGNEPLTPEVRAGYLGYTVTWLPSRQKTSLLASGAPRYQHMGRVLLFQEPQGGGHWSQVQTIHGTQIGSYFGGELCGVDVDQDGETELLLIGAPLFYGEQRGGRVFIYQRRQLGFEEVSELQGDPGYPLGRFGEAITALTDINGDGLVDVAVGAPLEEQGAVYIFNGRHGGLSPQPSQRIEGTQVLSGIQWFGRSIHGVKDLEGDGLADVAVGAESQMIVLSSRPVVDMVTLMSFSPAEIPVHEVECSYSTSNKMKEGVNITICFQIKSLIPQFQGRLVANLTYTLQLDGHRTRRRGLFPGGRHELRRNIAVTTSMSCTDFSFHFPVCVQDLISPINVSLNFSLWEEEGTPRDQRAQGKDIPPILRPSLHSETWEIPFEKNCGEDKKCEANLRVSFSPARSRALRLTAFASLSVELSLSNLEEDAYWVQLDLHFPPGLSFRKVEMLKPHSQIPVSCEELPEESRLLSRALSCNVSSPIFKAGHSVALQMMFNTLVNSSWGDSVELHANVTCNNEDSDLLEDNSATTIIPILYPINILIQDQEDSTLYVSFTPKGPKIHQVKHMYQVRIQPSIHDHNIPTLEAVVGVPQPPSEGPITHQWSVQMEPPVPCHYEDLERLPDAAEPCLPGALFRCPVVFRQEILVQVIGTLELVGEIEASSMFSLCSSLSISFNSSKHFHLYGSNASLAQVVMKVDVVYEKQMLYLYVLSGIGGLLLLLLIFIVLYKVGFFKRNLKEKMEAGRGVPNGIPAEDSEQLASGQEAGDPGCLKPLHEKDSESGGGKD
T1 sequence (P05107 23-769 partner): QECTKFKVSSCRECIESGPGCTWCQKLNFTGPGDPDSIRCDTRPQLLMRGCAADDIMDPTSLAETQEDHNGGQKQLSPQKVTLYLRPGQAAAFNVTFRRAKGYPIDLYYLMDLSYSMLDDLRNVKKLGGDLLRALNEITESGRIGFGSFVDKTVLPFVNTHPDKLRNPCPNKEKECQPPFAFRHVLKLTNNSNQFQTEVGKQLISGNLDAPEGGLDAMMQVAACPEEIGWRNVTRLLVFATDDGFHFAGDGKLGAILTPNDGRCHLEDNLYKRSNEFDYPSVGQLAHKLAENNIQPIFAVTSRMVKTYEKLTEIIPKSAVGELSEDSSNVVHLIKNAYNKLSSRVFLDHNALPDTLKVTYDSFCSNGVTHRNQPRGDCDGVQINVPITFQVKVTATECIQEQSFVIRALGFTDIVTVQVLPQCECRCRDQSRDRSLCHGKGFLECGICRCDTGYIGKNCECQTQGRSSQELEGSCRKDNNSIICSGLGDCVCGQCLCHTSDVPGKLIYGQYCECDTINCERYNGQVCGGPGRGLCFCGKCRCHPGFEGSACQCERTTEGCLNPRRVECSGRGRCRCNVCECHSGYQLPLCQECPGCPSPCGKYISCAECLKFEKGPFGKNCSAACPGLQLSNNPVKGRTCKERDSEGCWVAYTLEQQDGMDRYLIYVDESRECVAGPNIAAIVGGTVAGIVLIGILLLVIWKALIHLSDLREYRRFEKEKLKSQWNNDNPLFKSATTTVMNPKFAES
Protocol for CD19+ human B cells: Apoptosis was measured by annexin-V binding detected by flow cytometry, and gated for CD19+, cells. […] Apoptosis was measured by annexin-V binding assay.
Antibody cross-linking experiments were performed using mAbs to anti-ICAM-1, anti-ICAM-2, anti-ICAM-3, anti-CD43, or anti-CD44 that recognizes the N-terminal region (extracellular domain) at 10 μg/ml. Spin dialysis (Biorad) was used for buffer exchange of azide containing antibodies (0.01%) to phosphate buffered saline buffer pH 7.4. Anti-mouse IgG (Sigma) was used as a control antibody in cross-linking experiments. 1×10^6 Jurkat, 1×10^6 BaF3, or 1×10^7 PBMC cells were serum starved for 4 hours respectively (except PBMC). Cells were incubated with either mAb (10 μg/ml) or mouse IgG (10 μg/ml) at 37° C. for the indicated time. Time points began post serum starvation to attenuate most of the signaling pathways or as indicated. […] Cells extracts were taken and subjected to either immunoprecipitation or immunoblotting were appropriate. Primary cells were subjected to apoptotic treatment followed by preparation for flow cytometry. GTPγS was made cell permeant by pre-incubating compound with Fugene (Roche Biochemicals) in a 1:4 molar ratio for 30 minutes at 25° C. prior to being applied to cells.

Compound	apoptosis in primary cells on incubation with compound (CD19+ human B cells)	ICAM-2 crosslinking protection against Fas induced apoptosis (Jurkat T cells)	effect on ICAM-2 induced p44/42 MAPK phosphorylation (p44/42 MAPK)	tyrosine phosphorylation of ezrin (ezrin)	LFA-1 receptor clustering and ICAM-2 binding (cell surface LFA-1)	LFA-1 activation (mAb24 binding) (LFA-1)
Nc1nc2c(ncn2[C@@H]2O[C@H](COP(=O)(O)OP(=O)(O)OP(O)(O)=S)[C@@H](O)[C@H]2O)c(=O)[nH]1 [GTPγS]	induced apoptosis	abrogated				
CO[C@H]1[C@@H](OC)C[C@H](C)[C@@H](OC)C2=CC(=O)C=C(NC(=O)/C(C)=C/C=C\[C@H](OC)[C@@H](OC(N)=O)/C(C)=C/[C@@H]1C)C2=O [herbimycin A]	induced apoptosis	abrogated	no effect	inhibit tyrosine phosphorylation of ezrin		
cytochalisin D			diminished		enhanced LFA-1 receptor clustering and subsequent ICAM-2 binding	attenuated
